Source: patent US20260200939A1, “MOLECULAR GLUE DEGRADER COMPOUNDS AND USES THEREOF” (Novartis AG, priority 2022, published 2026)

Columns and labels:
[1] = biological target: T1, BRD4 short (Homo sapiens, UniProt O60885); experiment: BRD4 (short) degradation assay, Western blotting; format: cell-based; conditions: HEK293T cells
T1 construct: endogenous in cells; host or cells: HEK293T
Summary of the method: (§1)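 Cell lines were grown at 37° C with 5% CO2 (HEK293T and C33A in DMEM, A549 in F-12K, 22RV1, LNCaP and Mino in RPMI-1640, K562 and MV-4-11 in IMDM, all with 10% FBS). Lysates were BCA-normalized, then SDS/PAGE Western blots were probed with target-specific antibodies and read by IR680/IR800 fluorescent secondaries on Li-Cor.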

[2] = biological target: T2, Recombinant RNF126 (Homo sapiens, UniProt Q9BV68); experiment: RNF126 Binding Assay, gel-based ABPP
T2 construct: FLAG (C); host or cells: HEK293T
Summary of the method: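 FLAG-tagged human RNF126, expressed in HEK293T and purified on anti-FLAG resin, was pretreated with DMSO or covalent ligand for 30 min at 37 °C in PBS. IA-rhodamine was then added for 1 h at RT in the dark. Probe labelling was read by SDS-PAGE in-gel fluorescence.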

[3] = test system: HEK293T cells; experiment: Quantitative TMT proteomic profiling in HEK293T cells; format: cell-based
Protocol: Cells were treated with either DMSO vehicle or compound (Compound 130, 1 μM) for 24 h and lysate was prepared as described above. Briefly, 25-100 μg protein from each sample was reduced, alkylated and tryptically digested overnight. Individual samples were then labeled with isobaric tags using commercially available TMTsixplex (Thermo Fisher Scientific, P/N 90061) kits, in accordance with the manufacturer's protocols. Tagged samples (20 μg per sample) were combined, dried with SpeedVac, resuspended with 300 μL 0.1% TFA in H2O, and fractionated using high pH reversed-phase peptide fractionation kits (Thermo Scientific, P/N 84868) according to manufacturer's protocol. Fractions were dried with SpeedVac, resuspended with 50 μL 0.1% FA in H2O, and analyzed by LC-MS/MS as described below.
Quantitative TMT-based proteomic analysis was performed as previously described using a Thermo Eclipse with FAIMS LC-MS/MS (King, E. A. et al. Chemoproteomics-Enabled Discovery of a Covalent Molecular Glue Degrader Targeting NF-κB. 2022.05.18.492542 Preprint at https://doi.org/10.1101/2022.05.18.492542 (2022)). […] Only peptide-to-spectrum matches that are unique assignments to a given identified protein within the total dataset are considered for protein quantitation. […]

[4] = biological target: T3, BRD4 long (Homo sapiens, UniProt O60885); experiment: BRD4 (long) degradation assay, Western blotting; format: cell-based; conditions: HEK293T cells
T3 construct: endogenous in cells; host or cells: HEK293T
Summary of the method: as §1

[5] = biological target: T4, BTK (Homo sapiens, UniProt Q06187); experiment: BTK degradation in MINO lymphoma cancer cells, Western blotting; format: cell-based
T4 construct: endogenous in cells; host or cells: Mino
Protocol: C33A cells were purchased from American Type Culture Collection (ATCC) and were cultured in Dulbecco's Modified Eagle Medium (DMEM) containing 10% (v/v) fetal bovine serum (FBS) and maintained at 37° C. with 5% CO2. 22RV1 cells were purchased from the ATCC and were cultured in RPMI-1640 Medium containing 10% (v/v) FBS and maintained at 37° C. with 5% CO2. HEK293T cells were obtained from the UC Berkeley Cell Culture Facility and were cultured in DMEM containing 10% (v/v) FBS and maintained at 37° C. with 5% CO2. K562 cells were obtained from the UC Berkeley Cell Culture Facility and were cultured in Iscove's Modified Dulbecco's Medium (IMDM) containing 10% (v/v) FBS and maintained at 37° C. with 5% CO2. MV-4-11 cells were obtained from the ATCC and were cultured in IMDM containing 10% (v/v) FBS and maintained at 37° C. with 5% CO2. A549 cells were obtained from the ATCC and were cultured in F-12K Medium containing 10% (v/v) FBS and maintained at 37° C. with 5% CO2. Mino cells were obtained from the ATCC and were cultured in RPMI-1640 Medium containing 10% (v/v) FBS and maintained at 37° C. with 5% CO2. […]
Cells were washed twice with cold PBS, scraped, and pelleted by centrifugation (700 g, 5 min, 4° C.). […] Proteome concentrations were determined using BCA assay and lysate was diluted to appropriate working concentrations. […]

T2 sequence (Q9BV68 whole entry): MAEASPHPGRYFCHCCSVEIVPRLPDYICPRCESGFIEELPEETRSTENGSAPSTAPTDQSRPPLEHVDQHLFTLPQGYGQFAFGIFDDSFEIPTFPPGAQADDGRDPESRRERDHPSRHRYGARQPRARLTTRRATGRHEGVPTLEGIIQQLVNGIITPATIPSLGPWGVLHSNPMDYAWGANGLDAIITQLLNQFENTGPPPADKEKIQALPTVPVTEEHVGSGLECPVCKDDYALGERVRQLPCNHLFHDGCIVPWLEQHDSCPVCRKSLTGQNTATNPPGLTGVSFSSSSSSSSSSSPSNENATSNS
T4 sequence (Q06187 whole entry): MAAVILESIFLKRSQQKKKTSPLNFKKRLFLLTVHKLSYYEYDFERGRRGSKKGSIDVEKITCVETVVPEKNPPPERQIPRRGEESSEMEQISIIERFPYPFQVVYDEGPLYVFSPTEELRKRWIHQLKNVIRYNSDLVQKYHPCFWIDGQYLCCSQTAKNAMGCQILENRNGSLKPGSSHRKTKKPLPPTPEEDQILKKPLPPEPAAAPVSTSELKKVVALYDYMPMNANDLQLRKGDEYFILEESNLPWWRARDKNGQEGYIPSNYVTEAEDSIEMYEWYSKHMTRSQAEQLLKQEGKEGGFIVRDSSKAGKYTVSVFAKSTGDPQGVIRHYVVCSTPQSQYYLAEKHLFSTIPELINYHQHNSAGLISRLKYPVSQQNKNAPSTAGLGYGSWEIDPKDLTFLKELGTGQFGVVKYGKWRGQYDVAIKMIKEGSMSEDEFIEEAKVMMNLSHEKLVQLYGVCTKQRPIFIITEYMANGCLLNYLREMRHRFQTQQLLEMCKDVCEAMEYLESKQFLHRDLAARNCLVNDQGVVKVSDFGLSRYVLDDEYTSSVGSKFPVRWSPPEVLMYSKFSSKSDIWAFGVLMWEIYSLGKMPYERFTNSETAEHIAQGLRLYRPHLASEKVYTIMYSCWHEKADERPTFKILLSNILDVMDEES

| SMILES | degradation of BRD4 short isoform, in words [1] | binding to RNF126 (gel-based ABPP), in words [2] | selectivity of degradation by quantitative proteomic profiling [3] | degradation of BRD4 long isoform, in words [4] | degradation of BTK, in words [5] |
| --- | --- | --- | --- | --- | --- |
| COc1ccc(C(=O)/C=C/C(=O)N2CCN(C(=O)C[C@@H]3N=C(c4ccc(Cl)cc4)c4c(sc(C)c4C)-n4c(C)nnc43)CC2)cc1 [Compound 130, (S,E)-1-(4-(2-(4-(4-chlorophenyl)-2,3,9-trimethyl-6H-thieno[3,2-f][1,2,4]triazolo[4,3-a][1,4]diazepin-6-yl)acetyl)piperazin-1-yl)-4-(4-methoxyphenyl)but-2-ene-1,4-dione] | degradation of both the long and short isoforms of BRD4 in HEK293T cells in a dose-responsive, time-dependent, and proteasome-dependent manner | potent binding | relatively selective degradation of BRD4 | degradation of both the long and short isoforms of BRD4 in HEK293T cells in a dose-responsive, time-dependent, and proteasome-dependent manner | – |
| COc1ccc(C(=O)/C=C/C(=O)N2CCC[C@@H](n3nc(-c4ccc(Oc5ccccc5)cc4)c4c(N)ncnc43)C2)cc1 [Compound 131] | – | potent binding | – | – | degradation of BTK in MINO lymphoma cancer cells |
